# Results taken from patent US20220313678A1 (priority 2021, published 2022).
# Like-named read-outs stand apart in the source and are kept apart here.
# Key:
# [1] = free base (non-protonated); cited from earlier work
# [2] = 1:1 v:v, about 25° C., about 24 hours
# Description: Each of Samples 1-8 is prepared by and measured according to the following method. Liquid nicotine is added at the target nicotine concentration to a vessel containing an oil phase. The oil phase containing nicotine is mixed with an aqueous phase at a one-to-one volume ratio (v:v) using an orbital shaker at about 100 rotations per minute (rpm) for about 5 minutes to prepare a nicotine oil: aqueous phase mix. The nicotine oil: aqueous phase mix is allowed to sit at room temperature (about 25° C.) for about 24 hours. A concentration of nicotine in each of the oil phase and the nicotine phase is measured using a liquid chromatography method. A partition coefficient, which is a ratio concentrations of a compound (i.e., nicotine) in two immiscible solvents (i.e., an oil phase and an aqueous phase) at equilibrium, is calculated for each sample. The partition coefficient is a comparison of the solubilities of the nicotine in the two liquid phases.
# Samples 1-6 include MCT oil (CAS No. 73398-61-5) as an oil phase. Sample 7 includes triacetin oil as an oil phase. Sample 8 includes triolein oil as an oil phase. Sample 1 includes deionized (DI) water as an aqueous phase. Sample 2 includes basified DI water having a pH of 7.4 as an aqueous phase. Sample 3 includes artificial saliva having a pH of 6.8 as an aqueous phase. Artificial saliva simulates mucus conditions. […]
smiles,measurement,setting,value
"CN1CCCC1c1cccnc1 (stereo not drawn) [nicotine, 3-(1-methyl-2-pyrrolidinyl) pyridine]",pKa value,[1],about 8
same,partition coefficient (oil phase : aqueous phase),"[2]; Samples 1-4: MCT oil vs DI water, basified DI water pH 7.4, artificial saliva pH 6.8, acidified DI water pH 2",greater than 1
same,partition coefficient (oil phase : aqueous phase),"[2]; Samples 5-8: MCT, triacetin or triolein oil vs 1M acetic acid pH adjuster pH 2",less than 1
